PubChem BioAssay (NCI)
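Five concentrations, 48 hours, 96-well plates. At the TGI there is no net growth.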

Assays:
Assay in all cases: NCI anticancer screen, dose series, 48 h
HCT-15 colon = system: HCT-15 colon
OVCAR-5 ovarian = system: OVCAR-5 ovarian
UACC-257 melanoma = system: UACC-257 melanoma
UACC-62 melanoma = system: UACC-62 melanoma
SK-MEL-5 melanoma = system: SK-MEL-5 melanoma
ACHN renal = system: ACHN renal
U251 CNS = system: U251 CNS
EKVX NSCLC = system: EKVX NSCLC
LOX IMVI melanoma = system: LOX IMVI melanoma
RPMI-8226 leukemia = system: RPMI-8226 leukemia

Measured: TGI

Cc1c(N)nc([C@H](CC(N)=O)NC[C@H](N)C(N)=O)nc1C(=O)N[C@H](C(=O)N[C@H](C)[C@@H](O)CC(=O)N[C@H](C(=O)NC(O[C@@H]1O[C@@H](C)[C@@H](N)[C@@H](O)[C@H]1O)C(O)c1nc(-c2nc(C(=O)NCCCCN)cs2)cs1)[C@@H](C)O)[C@@H](O[C@@H]1O[C@@H](CO)[C@@H](O)[C@H](O)[C@@H]1O[C@H]1O[C@H](CO)[C@@H](O)[C@H](OC(N)=O)[C@@H]1O)c1c[nH]cn1 (stereo not given in full)
> 50 µM: all assays above
